Structures can show the parent of a compound that is named as a salt. Where two headings read alike, the source gives them in different places.
Assays:
Format in all cases: biochemical
recombinant PRL-2 = biological target: T1, recombinant PRL-2 (Homo sapiens, UniProt Q12974); assay: In vitro phosphatase assay (DiFMUP hydrolysis), PRL-2;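 also: PRL-2 activity read as DiFMUP hydrolysis after 20 min at room temperature with drug, enzyme first pre-reduced at 4 °C for 20 min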
T1 construct: 6xHis (N, cleaved yes); made in house; host or cells: E. coli One Shot BL21 Star
T1 sequence (Q12974 1-167): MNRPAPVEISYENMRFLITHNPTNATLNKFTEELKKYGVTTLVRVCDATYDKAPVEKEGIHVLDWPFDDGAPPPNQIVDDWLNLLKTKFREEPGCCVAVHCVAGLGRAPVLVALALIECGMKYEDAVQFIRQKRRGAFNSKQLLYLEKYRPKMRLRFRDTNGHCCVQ

recombinant PRL-1 = biological target: T2, recombinant PRL-1 (Homo sapiens, UniProt Q93096); assay: In vitro phosphatase assay (DiFMUP hydrolysis), PRL-1; also: test concentration or dose not given here
T2 construct: 6xHis (N, cleaved yes); made in house; host or cells: E. coli One Shot BL21 Star
T2 sequence (Q93096 1-173): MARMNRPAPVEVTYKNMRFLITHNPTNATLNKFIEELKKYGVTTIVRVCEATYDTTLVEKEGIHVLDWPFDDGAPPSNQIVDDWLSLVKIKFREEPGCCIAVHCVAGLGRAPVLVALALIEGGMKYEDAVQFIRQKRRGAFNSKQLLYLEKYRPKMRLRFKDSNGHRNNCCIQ

recombinant PRL-3 = biological target: T3, recombinant PRL-3 (Homo sapiens, UniProt O75365); assay: In vitro phosphatase assay (DiFMUP hydrolysis), PRL-3; also: test concentration or dose not given here
T3 construct: 6xHis (N, cleaved yes); made in house; host or cells: E. coli One Shot BL21 Star
T3 sequence (O75365 whole entry): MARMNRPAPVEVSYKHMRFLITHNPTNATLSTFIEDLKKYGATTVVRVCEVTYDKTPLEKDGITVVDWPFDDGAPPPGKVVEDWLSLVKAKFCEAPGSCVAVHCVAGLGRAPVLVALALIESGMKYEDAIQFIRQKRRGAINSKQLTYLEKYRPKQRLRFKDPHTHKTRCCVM

[1] = FDA-approved drug screen, compared to DMSO
[2] = FDA-approved drug screen, activity compared to DMSO

Row | Compound | % Phosphatase Activity (compared to DMSO) PRL-2 (recombinant PRL-2; [1]) [%] | % Phosphatase Activity (compared to DMSO) PRL-1 (recombinant PRL-1; [1]) [%] | % Phosphatase Activity (compared to DMSO) PRL-3 (recombinant PRL-3; [1]) [%] | also measured
1 | CN1C(=O)CCS(=O)(=O)C1c1ccc(Cl)cc1 (stereo not drawn) [Chlormezanone] | 127 | 81 | 91 | –
2 | CN(C)[C@@H]1C(O)=C(C(N)=O)C(=O)[C@@]2(O)C(O)=C3C(=O)c4c(O)cccc4[C@@](C)(O)[C@H]3[C@H](O)[C@@H]12 [Oxytetracycline Dihydrate] | 101 | 98 | 98 | –
3 | CCCCCCCCCCCC[N+](C)(C)CCOc1ccccc1 [Domiphen Bromide] | 104 | 106 | 84 | –
4 | CC(C)[C@H]1CC[C@H](C(=O)N[C@H](Cc2ccccc2)C(=O)O)CC1 [Nateglinide] | 90 | 92 | 73 | –
5 | CC(C)(C)C#Cc1cc(N(C(=O)[C@H]2CC[C@H](C)CC2)[C@H]2CC[C@H](O)CC2)c(C(=O)O)s1 [VX-222 (VCH-222, Lomibuvir)] | – | – | – | % Phosphatase Activity (compared to DMSO) PRL-2 (recombinant PRL-2; [2]): 85%; % Phosphatase Activity (compared to DMSO) PRL-1 (recombinant PRL-1; [2]): 91%; % Phosphatase Activity (compared to DMSO) PRL-3 (recombinant PRL-3; [2]): 76%
6 | C[N+](C)(C)C[C@H](O)CC(=O)[O-] [L-carnitine] | 103 | 102 | 83 | –
7 | COc1ccc2[n-]c([S+]([O-])Cc3ncc(C)c(OC)c3C)nc2c1.COc1ccc2[n-]c([S+]([O-])Cc3ncc(C)c(OC)c3C)nc2c1.[Mg+2] (stereo not drawn) [Esomeprazole Magnesium] | 88 | 84 | 93 | –
8 | Cc1onc(-c2ccccc2Cl)c1C(=O)N[C@@H]1C(=O)N2[C@@H]1SC(C)(C)[C@@H]2C(=O)O [Cloxacillin Sodium] | 104 | 98 | 87 | –
9 | CC(C)Cn1cnc2c(N)nc3ccccc3c21 [Imiquimod] | 106 | 98 | 67 | –
10 | CCNC1(C(N)=O)CCN(c2ncnc3c2nc(-c2ccccc2Cl)n3-c2ccc(Cl)cc2)CC1.Cl [Otenabant (CP-945598) HCl] | 78 | 96 | 97 | –
11 | COc1cc(C)c(/C=C/C(C)=C/C=C/C(C)=C/C(=O)O)c(C)c1C [Acitretin] | 87 | 83 | 62 | –
12 | Nc1ccc(O)c(C(=O)O)c1 [Mesalamine] | 131 | 112 | 82 | –
13 | Cl.NCCc1c[nH]c2ccc(O)cc12 [Serotonin HCl] | 101 | 106 | 80 | –
14 | CN(C)CC/C=C1/c2ccccc2COc2ccc(CC(=O)O)cc21 [Olopatadine HCl] | 121 | 116 | 74 | –
15 | Cc1cc(/C=C/C#N)cc(C)c1Nc1ccnc(Nc2ccc(C#N)cc2)n1 [Rilpivirine] | 116 | 139 | 136 | –
16 | CSc1ccc2c(c1)N(CCC1CCCCN1C)c1ccccc1S2 (stereo not drawn) [Thioridazine HCl] | – | – | – | % Phosphatase Activity (compared to DMSO) PRL-2 (recombinant PRL-2): 104%; % Phosphatase Activity (compared to DMSO) PRL-1 (recombinant PRL-1): 95%; % Phosphatase Activity (compared to DMSO) PRL-3 (recombinant PRL-3): 97%
17 | COCCOC(=O)C1=C(C)NC(C)=C(C(=O)OC(C)C)C1c1cccc([N+](=O)[O-])c1 (stereo not drawn) [Nimodipine] | 72 | 76 | 88 | –

From publication PMC8119466, “A screen of FDA-approved drugs identifies inhibitors of protein tyrosine phosphatase 4A3 (PTP4A3 or PRL-3)” (Scientific Reports, 2021)
